In paper PMC4901301 (Scientific Reports, 2016):
Values after ≈ are worked out from the molar mass of the structure shown. Like-named read-outs stand apart in the source and are kept apart here.

Legend:
[1] = target: Mtb gyrase (Mycobacterium tuberculosis, UniProt P9WG45); test: Mtb gyrase supercoiling assay; type: biochemical
Experimental: Mtb gyrase supercoiling assays were carried out as described previously.

[2] = target: Mtb ThyX (Mycobacterium tuberculosis, UniProt P9WG57); test: Mtb ThyX tritium release assay; type: biochemical; conditions: for % of ThyX inhibition at 100 µM: actual measured data; for Ki: read-out: Ki against Mtb ThyX
[3] = tested on: Mtb H37Rv; test: Resazurin (Alamar Blue) drug susceptibility testing, H37Rv; type: cell-based, Mycobacterium tuberculosis
[4] = tested on: Mtb TH 12526; test: Resazurin (Alamar Blue) drug susceptibility testing, TH 12526; type: cell-based, Mycobacterium tuberculosis
[5] = tested on: Mtb H37Rv; test: Broth microdilution susceptibility of Mtb H37Rv; type: cell-based, Mycobacterium tuberculosis; conditions: replicating Mtb H37Rv, read-out: MIC90 (µM) against H37Rv
[6] = tested on: Mtb; set-up: method as in earlier work; conditions: cited from earlier work
[7] = menadione analogs, 7H9 media with 1% ethanol as a co-solvent, read-out: MIC (H37Rv)

Chain of Mtb gyrase (P9WG47 whole entry): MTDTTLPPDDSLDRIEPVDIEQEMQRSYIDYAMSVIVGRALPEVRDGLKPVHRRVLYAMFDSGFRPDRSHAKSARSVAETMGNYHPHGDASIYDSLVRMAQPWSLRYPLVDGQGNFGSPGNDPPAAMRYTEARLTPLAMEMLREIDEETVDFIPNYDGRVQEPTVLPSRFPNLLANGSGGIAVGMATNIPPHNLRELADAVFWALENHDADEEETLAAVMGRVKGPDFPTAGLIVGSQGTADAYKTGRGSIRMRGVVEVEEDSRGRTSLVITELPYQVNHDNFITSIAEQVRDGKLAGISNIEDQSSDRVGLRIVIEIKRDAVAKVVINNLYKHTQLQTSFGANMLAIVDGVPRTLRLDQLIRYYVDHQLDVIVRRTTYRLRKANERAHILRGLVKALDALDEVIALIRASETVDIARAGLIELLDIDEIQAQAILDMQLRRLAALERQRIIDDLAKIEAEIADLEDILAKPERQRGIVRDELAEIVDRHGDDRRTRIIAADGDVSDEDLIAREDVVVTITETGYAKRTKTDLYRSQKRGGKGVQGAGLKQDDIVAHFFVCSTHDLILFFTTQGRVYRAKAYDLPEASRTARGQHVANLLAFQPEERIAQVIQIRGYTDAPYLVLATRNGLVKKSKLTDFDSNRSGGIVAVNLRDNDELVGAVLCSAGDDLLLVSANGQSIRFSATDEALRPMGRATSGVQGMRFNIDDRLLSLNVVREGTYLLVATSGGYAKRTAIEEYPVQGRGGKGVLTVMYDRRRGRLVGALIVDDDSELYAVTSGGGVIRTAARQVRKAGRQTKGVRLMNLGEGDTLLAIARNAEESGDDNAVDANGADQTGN
Chain of Mtb gyrase (P9WG45 whole entry): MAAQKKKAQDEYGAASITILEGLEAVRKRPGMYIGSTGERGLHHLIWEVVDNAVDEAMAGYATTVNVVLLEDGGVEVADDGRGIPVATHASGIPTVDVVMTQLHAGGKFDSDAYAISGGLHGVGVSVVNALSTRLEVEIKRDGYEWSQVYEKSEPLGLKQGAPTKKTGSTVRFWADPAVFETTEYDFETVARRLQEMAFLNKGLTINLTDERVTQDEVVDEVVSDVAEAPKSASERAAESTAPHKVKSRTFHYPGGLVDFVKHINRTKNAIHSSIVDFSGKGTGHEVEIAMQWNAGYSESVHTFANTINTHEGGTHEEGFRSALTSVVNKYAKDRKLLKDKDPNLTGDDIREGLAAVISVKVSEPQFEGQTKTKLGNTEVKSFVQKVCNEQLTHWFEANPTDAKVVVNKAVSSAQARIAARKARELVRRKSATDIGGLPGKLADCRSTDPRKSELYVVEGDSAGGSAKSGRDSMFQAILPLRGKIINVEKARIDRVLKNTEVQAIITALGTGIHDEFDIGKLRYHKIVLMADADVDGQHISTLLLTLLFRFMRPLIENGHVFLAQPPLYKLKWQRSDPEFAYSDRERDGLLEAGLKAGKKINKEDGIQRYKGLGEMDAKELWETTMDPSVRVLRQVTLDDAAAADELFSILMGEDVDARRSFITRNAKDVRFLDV
Chain of Mtb ThyX (P9WG57 whole entry): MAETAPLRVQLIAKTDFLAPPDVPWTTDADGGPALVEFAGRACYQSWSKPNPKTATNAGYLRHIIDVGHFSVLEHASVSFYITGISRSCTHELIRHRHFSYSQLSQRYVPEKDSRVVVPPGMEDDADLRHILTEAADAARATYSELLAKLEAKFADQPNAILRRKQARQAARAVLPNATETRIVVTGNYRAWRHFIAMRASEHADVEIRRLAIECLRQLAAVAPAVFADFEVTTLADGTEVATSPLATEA

Compound: CCOCCOC(=O)COc1ccc2c(-c3ccccc3)cc(=O)oc2c1 [2-ethoxyethyl [(2-oxo-4-phenyl-2H-chromen-7-yl)oxy]acetate]
- Activity against gyrase at 100 uM [1]: no activity

Compound: Cc1cc(O)c2c(c1)C(=O)C=CC2=O [7-methyljuglone, reference compound]
- Activity against Mtb ThyX (in words) [2]: active
- IC50 [2]: 35 µM
- Activity against Mtb gyrase (in words) [1]: active
- IC50 [1]: 30 µM

Compound: O=C1C(Br)=CC(=O)c2c(O)cccc21 [Compound 2E04]
- Activity against Mtb ThyX (in words) [2]: inhibit
- IC50 [2]: 5 µM
- Activity against Mtb gyrase (in words) [1]: inactive
- IC50 [1]: > 50 µM

Compound: O=C1C(O)=C(Cc2ccc(-c3ccc(Cl)cc3)cc2)C(=O)c2ccccc21 [Compound 007B]
- % of ThyX inhibition at 100 µM [2]: 21%
- MIC ([3]; H37Rv, read-out: MIC): 20.8 µM (≈ 7.8 µg/mL)
- MIC ([4]; TH 12526, read-out: MIC): 41.7 µM (≈ 15.6 µg/mL)

Compound: O=C1C(O)=C(Cc2ccc(OC(F)(F)F)cc2)C(=O)c2ccccc21 [Compound 007C]
- % of ThyX inhibition at 100 µM [2]: 78%
- MIC ([3]; H37Rv, read-out: MIC): 89.7 µM (≈ 31.2 µg/mL)
- MIC ([4]; TH 12526, read-out: MIC): 44.9 µM (≈ 15.6 µg/mL)

Compound: CC(C)Oc1ccc(CC2=C(O)C(=O)c3ccccc3C2=O)cc1 [Compound 007D]
- % of ThyX inhibition at 100 µM [2]: 71%
- MIC ([3]; read-out: MIC): 96.9 µM (≈ 31.2 µg/mL)
- MIC ([4]; TH 12526, read-out: MIC): 96.9 µM (≈ 31.2 µg/mL)

Compound: O=C1C(O)=C(Cc2ccc(C(F)(F)F)cc2)C(=O)c2ccccc21 [Compound 007F]
- % of ThyX inhibition at 100 µM [2]: 74%
- MIC ([3]; read-out: MIC): 94.1 µM (≈ 31.3 µg/mL)
- MIC ([4]; TH 12526, read-out: MIC): 47.0 µM (≈ 15.6 µg/mL)

Compound: O=C1C(O)=C(Cc2ccc(Oc3ccccc3)cc2)C(=O)c2ccccc21 [Compound 007G]
- % of ThyX inhibition at 100 µM [2]: 89%
- MIC ([3]; read-out: MIC): 175.5 µM (≈ 62.5 µg/mL)
- MIC ([4]; TH 12526, read-out: MIC): 87.8 µM (≈ 31.3 µg/mL)

Compound: O=C1C(O)=C(Cc2ccc(Cl)cc2)C(=O)c2ccccc21 [Compound 010A]
- % of ThyX inhibition at 100 µM [2]: 64%
- MIC ([3]; read-out: MIC): 52.3 µM (≈ 15.6 µg/mL)
- MIC ([4]; TH 12526, read-out: MIC): 52.3 µM (≈ 15.6 µg/mL)

Compound: O=C1C(O)=C(Cc2cc(F)cc(F)c2)C(=O)c2ccccc21 [Compound 010B]
- % of ThyX inhibition at 100 µM [2]: 68%
- MIC ([3]; read-out: MIC): 104.1 µM (≈ 31.3 µg/mL)
- MIC ([4]; TH 12526, read-out: MIC): 104.1 µM (≈ 31.3 µg/mL)

Compound: O=C1C(O)=C(Cc2ccco2)C(=O)c2ccccc21 [Compound 010C]
- % of ThyX inhibition at 100 µM [2]: 60%
- MIC ([3]; read-out: MIC): 176.5 µM (≈ 44.9 µg/mL)
- MIC ([4]; TH 12526, read-out: MIC): 176.5 µM (≈ 44.9 µg/mL)

Compound: O=C1C(O)=C(Cc2cccs2)C(=O)c2ccccc21 [Compound 010D]
- % of ThyX inhibition at 100 µM [2]: 42%
- MIC ([3]; read-out: MIC): 231.2 µM (≈ 62.5 µg/mL)
- MIC ([4]; TH 12526, read-out: MIC): 231.2 µM (≈ 62.5 µg/mL)

Compound: O=C1C(O)=C(Cc2ccc(F)c(C(F)(F)F)c2)C(=O)c2ccccc21 [Compound 010E]
- % of ThyX inhibition at 100 µM [2]: 32%
- MIC ([3]; read-out: MIC): 22.3 µM (≈ 7.81 µg/mL)
- MIC ([4]; TH 12526, read-out: MIC): 22.3 µM (≈ 7.81 µg/mL)

Compound: O=C1C(O)=C(Cc2ccc(F)c(Cl)c2)C(=O)c2ccccc21 [Compound 010F]
- % of ThyX inhibition at 100 µM [2]: 73%
- MIC ([3]; read-out: MIC): 197.3 µM (≈ 62.5 µg/mL)
- MIC ([4]; TH 12526, read-out: MIC): 98.7 µM (≈ 31.3 µg/mL)

Compound: COc1cc(CC2=C(O)C(=O)c3ccccc3C2=O)ccc1O [Compound 010H]
- % of ThyX inhibition at 100 µM [2]: 41%
- MIC ([3]; read-out: MIC): 201.4 µM (≈ 62.5 µg/mL)
- MIC ([4]; TH 12526, read-out: MIC): 201.4 µM (≈ 62.5 µg/mL)

Compound: CCCCC1=C(O)C(=O)c2ccccc2C1=O [Compound 010I]
- % of ThyX inhibition at 100 µM [2]: 58%
- MIC ([3]; read-out: MIC): 135.7 µM (≈ 31.2 µg/mL)
- MIC ([4]; TH 12526, read-out: MIC): 67.8 µM (≈ 15.6 µg/mL)

Compound: COc1ccc(CC2=C(O)C(=O)c3ccccc3C2=O)cc1OC [Compound 010K]
- % of ThyX inhibition at 100 µM [2]: 42%
- MIC ([3]; read-out: MIC): 192.7 µM (≈ 62.5 µg/mL)
- MIC ([4]; TH 12526, read-out: MIC): 48.2 µM (≈ 15.6 µg/mL)

Compound: CCOC(=O)C1=C(c2ccc(C)cc2)C(=O)c2ccccc2C1=O [Compound B6, ethyl 3-(4-methylphenyl)-1,4-dioxonaphtalene-2-carboxylate]
- Ki ([2]; from dose response curves versus ThyX): 4.5 µM
- MIC90 ([5]; Mycobacterium tuberculosis): 62.5 µM (≈ 20 µg/mL)

Compound: COc1ccc(CC2=C(O)C(=O)c3ccccc3C2=O)cc1 [Compound C8-C1]
- Activity against Mtb ThyX (in words) [2]: inhibit
- IC50 [2]: 4.5 µM
- Activity against Mtb gyrase (in words) [1]: inactive
- IC50 gyrase [1]: No inhibition

Compound: O=C1C=C(Cc2ccc(F)cc2)C(=O)c2ccccc21 [Compound D4]
- MIC90 [5]: 31.2 µM (≈ 8.31 µg/mL)

Compound: COc1ccc(CC2=CC(=O)c3ccccc3C2=O)cc1 [Compound D5]
- MIC90 [5]: 62.5 µM (≈ 17.4 µg/mL)

Compound: CS(=O)(=O)N1CCN(C2=C(Cl)C(=O)c3ccccc3C2=O)CC1 [Compound E1, 2-chloro-3-(4-methanesulfonylpiperazin-1-yl)-1,4-dihydronaphthalene-1,4-dione]
- MIC90 ([5]; Mycobacterium tuberculosis): 62.5 µM (≈ 22.2 µg/mL)

Compound: CC(=O)N(C1=C(Cl)C(=O)c2ccccc2C1=O)c1cccc(F)c1 [Compound E10]
- MIC90 [5]: 31.2 µM (≈ 10.7 µg/mL)

Compound: O=C1C(Cl)=C(N2CCN(C(=O)c3ccc(F)cc3)CC2)C(=O)c2ccccc21 [Compound F1]
- MIC90 [5]: 31.2 µM (≈ 12.4 µg/mL)

Compound: CCS(=O)(=O)N1CCN(C2=C(Cl)C(=O)c3ccccc3C2=O)CC1 [Compound F2]
- MIC90 [5]: 31.2 µM (≈ 11.5 µg/mL)

Compound: Cc1cc(O)c2c(c1)C(=O)C(c1c(C)cc3c(c1O)C(=O)C=CC3=O)=CC2=O [Diospyrin, reference compound]
- IC50 ThyX [2]: No inhibition
- Activity against Mtb gyrase (in words) [1]: inhibits
- IC50 [1]: 15 µM

Compound: NNC(=O)c1ccncc1 [INH, isoniazid, reference compound]
- MIC ([3]; Mycobacterium tuberculosis, H37RV, read-out: MIC): < 0.91 µM
- MIC ([4]; Mycobacterium tuberculosis, TH12526, TH 12526, read-out: MIC): < 0.91 µM
- MIC [6]: 0.25 µg/mL (≈ 1.82 µM)

Compound: COC1=C(OC)C(=O)C(CCCCCCCCCCO)=C(C)C1=O [Idebenone, idebenone, reference compound]
- Ki ([2]; uncompetitive with respect to dUMP, converted from measured IC50): 3.3 µM
- Mode of inhibition of Mtb ThyX ([2]; with respect to dUMP): uncompetitive
- MIC90 ([5]; Mycobacterium tuberculosis): 125 µM (≈ 42.3 µg/mL)
- MIC90 [5]: 125 µM (≈ 42.3 µg/mL)

Compound: Cc1cc2c(c(O)c1-c1c(C)cc(O)c3c1C(=O)C=CC3=O)C(=O)C=CC2=O [Isodiospyrin, reference compound]
- IC50 [1]: 100 µM

Compound: CC(C)=CCC/C(C)=C/CC/C(C)=C/CC/C(C)=C/CC/C(C)=C/CC/C(C)=C/CC/C(C)=C/CC/C(C)=C/CC/C(C)=C/CC1=C(C)C(=O)c2ccccc2C1=O [MK-9, reference compound]
- MIC [3, 7]: > 6.4 µM

Compound: CC1(S(=O)(=O)[O-])CC(=O)c2ccccc2C1=O.[Na+] (stereo not shown) [Menadione Bisulfate, reference compound]
- MIC [3, 7]: 311.3 µM

Compound: CC1=CC(=O)c2ccccc2C1=O [Menadione, reference compound]
- Activity against Mtb gyrase (in words) [1]: inactive
- MIC ([3]; Mycobacterium tuberculosis, H37RV, menadione analogs, 7H9 media with 1% ethanol as a co-solvent, read-out: MIC (H37Rv)): 98.8 µM (≈ 17 µg/mL)

Compound: Cc1cc(O)c2c(c1)C(=O)C=C(c1c(C)cc(O)c3c1C(=O)C=CC3=O)C2=O [Neodiospyrin, reference compound]
- IC50 [2]: 20 µM
- IC50 [1]: 50 µM

Compound: CO[C@H]1/C=C/O[C@@]2(C)Oc3c(C)c(O)c4c(O)c(c(/C=N/N5CCN(C)CC5)c(O)c4c3C2=O)NC(=O)/C(C)=C\C=C\[C@H](C)[C@H](O)[C@@H](C)[C@@H](O)[C@@H](C)[C@H](OC(C)=O)[C@@H]1C [RMP, rifampicin, reference compound]
- MIC ([4]; Mycobacterium tuberculosis, TH12526): < 0.3 µM
- MIC [6]: 0.5 µg/mL (≈ 0.608 µM)

Compound: CCCCc1cc(=O)oc2cc(OCC(=O)OCc3ccccc3)c(Cl)cc12 [benzyl [(4-butyl-6-chloro-2-oxo-2H-chromen-7-yl)oxy]acetate]
- Activity against gyrase at 100 uM [1]: no activity

Compound: CCOC(=O)COc1cc2oc(=O)cc(CC)c2cc1Cl [ethyl [(6-chloro-4-ethyl-2-oxo-2H-chromen-7-yl)oxy]acetate]
- Activity against gyrase at 100 uM [1]: no activity

Compound: COC(=O)COc1cc2oc(=O)cc(-c3ccccc3)c2cc1Cl [methyl [(6-chloro-2-oxo-4-phenyl-2H-chromen-7-yl)oxy]acetate]
- Activity against gyrase at 100 uM [1]: no activity

Compound: CCCc1cc(=O)oc2cc(OCC(=O)OC)c(Cl)cc12 [methyl [(6-chloro-2-oxo-4-propyl-2H-chromen-7-yl)oxy]acetate]
- Activity against gyrase at 100 uM [1]: no activity

Compound: CCc1cc2c(=O)c(-c3ccc(OC)cc3)coc2cc1OCC(=O)OC [methyl {[6-ethyl-3-(4-methoxyphenyl)-4-oxo-4H-chromen-7-yl]oxy}acetate]
- Activity against gyrase at 100 uM [1]: no activity

Compound: C=CCOC(=O)COc1cc2oc(=O)c(Cc3ccccc3)c(C)c2cc1Cl [prop-2-en-1-yl 2-[(3-benzyl-6-chloro-4-methyl-2-oxo-2H-chromen-7-yl)oxy]acetate]
- Activity against gyrase at 100 uM [1]: no activity
